Reference: ChEMBL document CHEMBL3826929, “Discovery and Preclinical Evaluation of BMS-711939, an Oxybenzylglycine Based PPARα Selective Agonist” (ACS Med Chem Lett, 2016)

What was measured:
[1] = Volume of distribution at steady state in Balb/c mouse at 5 mg/kg, iv; format: ADME, organism-based; details: in vivo, read-out: Vdss
[2] = test system: Mus musculus; assay: Increase in HDL cholesterol level in transgenic mouse expressing human ApoA1 compound administered qd through oral gavage measured after 10 days; format: functional, organism-based
[3] = Cmax in cynomolgus monkey at 2 mg/kg, po; format: ADME, organism-based, Macaca fascicularis; design: dose 2 mg/kg, route oral; details: in vivo
[4] = Tmax in dog at 2 mg/kg, po; format: ADME, organism-based, Canis lupus familiaris; details: in vivo
[5] = test system: Mus musculus; assay: Decrease in triglyceride level in transgenic mouse expressing human ApoA1 at 3 mg/kg administered qd through oral gavage measured after 10 days relative to vehicle control; format: functional; design: scale not given: the % may be the effect or the level left
[6] = test system: Mus musculus; assay: Increase in ApoA1 level in transgenic mouse expressing human ApoA1 at 10 mg/kg administered qd through oral gavage measured after 10 days relative to vehicle-treated control; format: functional
[7] = AUC (0 to 8 hrs) in Sprague-Dawley rat at 4 mg/kg, iv; format: ADME, organism-based; design: time < 8 hr, dose 4 mg/kg, route intravenous; details: in vivo
[8] = target: Liver X receptor (Homo sapiens, UniProt Q13133+P55055); assay: Agonist activity at human LXR by transactivation assay; format: protein assay
[9] = test system: HEK293; assay: Selectivity ratio of EC50 for Gal4-tagged human PPAR-gamma expressed in HEK cells to EC50 for Gal4-tagged human PPAR-alpha expressed in HEK cells; format: cell-based
[10] = Oral bioavailability in cynomolgus monkey at 2 mg/kg; format: ADME, organism-based, Macaca fascicularis; details: in vivo
[11] = target: T1, Peroxisome proliferator-activated receptor gamma (Homo sapiens, UniProt P37231); assay: Binding affinity to human GST-tagged PPAR-gamma LBD expressed in Escherichia coli BL21 after 30 mins in presence of fluorescein ligand FLA-A by fluorescence polarization assay
T1 sequence (P37231 whole entry): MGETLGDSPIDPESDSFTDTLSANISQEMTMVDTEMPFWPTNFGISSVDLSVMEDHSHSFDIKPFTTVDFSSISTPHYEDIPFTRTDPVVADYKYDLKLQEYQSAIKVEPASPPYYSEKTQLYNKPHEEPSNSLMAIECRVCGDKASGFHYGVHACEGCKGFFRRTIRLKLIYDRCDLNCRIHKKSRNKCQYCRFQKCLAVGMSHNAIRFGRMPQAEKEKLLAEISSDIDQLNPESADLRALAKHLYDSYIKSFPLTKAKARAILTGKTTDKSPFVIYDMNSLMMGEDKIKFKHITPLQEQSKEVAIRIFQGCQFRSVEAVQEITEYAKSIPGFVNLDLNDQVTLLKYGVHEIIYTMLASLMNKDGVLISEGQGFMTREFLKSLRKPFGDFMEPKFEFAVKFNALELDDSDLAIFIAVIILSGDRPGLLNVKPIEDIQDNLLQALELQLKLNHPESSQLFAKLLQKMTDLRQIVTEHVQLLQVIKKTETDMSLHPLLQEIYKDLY

[12] = target: Cytochrome P450 2D6 (Homo sapiens, UniProt P10635); assay: Inhibition of CYP2D6 (unknown origin); format: ADME
[13] = test system: Mus musculus; assay: Increase in serum ApoA1 level in transgenic mouse expressing human ApoA1 compound administered qd through oral gavage measured after 10 days; format: functional, organism-based
[14] = Plasma clearance in dog at 1 mg/kg, iv; format: ADME, organism-based, Canis lupus familiaris
[15] = test system: Syrian golden hamster; assay: Decrease in plasma LDL cholesterol level in high fat-diet fed syrian golden hamster model of dyslipidemia administered qd through oral gavage measured after 21 days by FPLC analysis relative to control; format: functional, organism-based; details: Mesocricetus auratus
[16] = test system: Mus musculus; assay: Increase in HDL cholesterol level in transgenic mouse expressing human ApoA1 at 10 mg/kg administered qd through oral gavage measured after 10 days relative to vehicle control; format: functional
[17] = test system: Mus musculus; assay: Decrease in triglyceride level in transgenic mouse expressing human ApoA1 at 50 mg/kg administered qd through oral gavage measured after 10 days relative to vehicle control; format: functional; design: scale not given: the % may be the effect or the level left
[18] = target: T2, Peroxisome proliferator-activated receptor alpha (Homo sapiens, UniProt Q07869); assay: Agonist activity at full length human PPAR-alpha transfected in human HepG2 cells by luciferase reporter gene assay; format: cell-based
T2 sequence (Q07869 whole entry): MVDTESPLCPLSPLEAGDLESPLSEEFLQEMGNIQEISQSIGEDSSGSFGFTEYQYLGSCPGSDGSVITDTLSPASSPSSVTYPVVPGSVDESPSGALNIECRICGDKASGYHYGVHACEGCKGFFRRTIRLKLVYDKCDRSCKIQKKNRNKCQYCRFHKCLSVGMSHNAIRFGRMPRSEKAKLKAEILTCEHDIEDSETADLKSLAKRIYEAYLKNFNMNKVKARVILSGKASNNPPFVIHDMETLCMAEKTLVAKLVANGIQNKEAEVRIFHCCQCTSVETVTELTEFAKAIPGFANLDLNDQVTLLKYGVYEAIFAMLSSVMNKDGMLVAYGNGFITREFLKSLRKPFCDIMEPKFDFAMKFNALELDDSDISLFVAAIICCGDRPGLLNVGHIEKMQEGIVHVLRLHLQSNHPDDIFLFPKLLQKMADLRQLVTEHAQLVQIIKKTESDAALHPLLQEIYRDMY

[19] = Protein binding in cynomolgus monkey plasma; format: ADME, cell-free, Macaca fascicularis; details: read-out: PPB
[20] = target: Glucocorticoid receptor (Homo sapiens, UniProt P04150); assay: Agonist activity at human GR by transactivation assay
[21] = test system: Syrian golden hamster; assay: Decrease in plasma LDL cholesterol level in high fat-diet fed syrian golden hamster model of dyslipidemia at 3 mg/kg administered qd through oral gavage measured after 21 days by FPLC analysis relative to control; format: functional, Mesocricetus auratus; design: scale not given: the % may be the effect or the level left
[22] = test system: Syrian golden hamster; assay: Decrease in liver triglyceride level in high fat-diet fed syrian golden hamster model of dyslipidemia at 10 mg/kg administered qd through oral gavage measured after 21 days by FPLC analysis relative to control; format: functional, Mesocricetus auratus; design: scale not given: the % may be the effect or the level left
[23] = Plasma clearance in Sprague-Dawley rat at 4 mg/kg, iv; format: ADME, organism-based
[24] = test system: Mus musculus; assay: Increase in HDL cholesterol level in transgenic mouse expressing human ApoA1 at 3 mg/kg administered qd through oral gavage measured after 10 days relative to vehicle control; format: functional
[25] = target: T1, Peroxisome proliferator-activated receptor gamma; assay: Agonist activity at full length human PPAR-gamma transfected in human HepG2 cells by luciferase reporter gene assay; format: cell-based
[26] = test system: Rhesus monkey; assay: Cardiovascular toxicity in monkey assessed as change in electrocardiographic effect up to 20 mg/kg administered as single dose by telemetry test; format: organism-based, Macaca mulatta; details: in vivo
[27] = AUC (0 to 8 hrs) in Balb/c mouse at 10 mg/kg, po; format: ADME, organism-based; design: dose 10 mg/kg, time < 8 hr, route oral; details: in vivo
[28] = test system: Mus musculus; assay: Increase in ApoA1 level in transgenic mouse expressing human ApoA1 at 3 mg/kg administered qd through oral gavage measured after 10 days relative to vehicle-treated control; format: functional
[29] = test system: Syrian golden hamster; assay: Decrease in liver cholesterol level in high fat-diet fed syrian golden hamster model of dyslipidemia at 1 mg/kg administered qd through oral gavage measured after 21 days by FPLC analysis relative to control; format: functional, Mesocricetus auratus; design: scale not given: the % may be the effect or the level left
[30] = Cmax in dog at 2 mg/kg, po; format: ADME, organism-based, Canis lupus familiaris; design: dose 2 mg/kg, route oral; details: in vivo
[31] = target: Cytochrome P450 2C8 (Homo sapiens, UniProt P10632); assay: Inhibition of CYP2C8 (unknown origin); format: ADME
[32] = AUC (0 to 8 hrs) in cynomolgus monkey at 2 mg/kg, po; format: ADME, organism-based, Macaca fascicularis; design: time < 8 hr, dose 2 mg/kg, route oral; details: in vivo
[33] = Tmax in cynomolgus monkey at 2 mg/kg, po; format: ADME, organism-based, Macaca fascicularis; details: in vivo
[34] = AUC (0 to 8 hrs) in Balb/c mouse at 5 mg/kg, iv; format: ADME, organism-based; design: dose 5 mg/kg, time < 8 hr, route intravenous; details: in vivo

Sequence of Cytochrome P450 2D6 (P10635 whole entry): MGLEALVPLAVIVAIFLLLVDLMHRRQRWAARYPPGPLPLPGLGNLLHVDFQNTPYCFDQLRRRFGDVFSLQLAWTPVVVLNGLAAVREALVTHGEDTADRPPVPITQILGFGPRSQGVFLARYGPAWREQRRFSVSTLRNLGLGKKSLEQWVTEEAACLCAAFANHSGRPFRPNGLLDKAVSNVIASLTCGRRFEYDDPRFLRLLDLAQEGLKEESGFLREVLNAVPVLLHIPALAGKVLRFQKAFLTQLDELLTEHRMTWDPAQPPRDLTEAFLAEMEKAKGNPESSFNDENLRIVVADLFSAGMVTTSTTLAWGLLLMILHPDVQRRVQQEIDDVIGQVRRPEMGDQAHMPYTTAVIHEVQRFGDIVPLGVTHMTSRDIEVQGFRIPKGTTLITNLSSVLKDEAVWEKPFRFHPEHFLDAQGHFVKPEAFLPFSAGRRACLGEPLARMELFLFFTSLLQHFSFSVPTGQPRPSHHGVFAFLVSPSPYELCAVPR
Sequence of Glucocorticoid receptor (P04150 whole entry): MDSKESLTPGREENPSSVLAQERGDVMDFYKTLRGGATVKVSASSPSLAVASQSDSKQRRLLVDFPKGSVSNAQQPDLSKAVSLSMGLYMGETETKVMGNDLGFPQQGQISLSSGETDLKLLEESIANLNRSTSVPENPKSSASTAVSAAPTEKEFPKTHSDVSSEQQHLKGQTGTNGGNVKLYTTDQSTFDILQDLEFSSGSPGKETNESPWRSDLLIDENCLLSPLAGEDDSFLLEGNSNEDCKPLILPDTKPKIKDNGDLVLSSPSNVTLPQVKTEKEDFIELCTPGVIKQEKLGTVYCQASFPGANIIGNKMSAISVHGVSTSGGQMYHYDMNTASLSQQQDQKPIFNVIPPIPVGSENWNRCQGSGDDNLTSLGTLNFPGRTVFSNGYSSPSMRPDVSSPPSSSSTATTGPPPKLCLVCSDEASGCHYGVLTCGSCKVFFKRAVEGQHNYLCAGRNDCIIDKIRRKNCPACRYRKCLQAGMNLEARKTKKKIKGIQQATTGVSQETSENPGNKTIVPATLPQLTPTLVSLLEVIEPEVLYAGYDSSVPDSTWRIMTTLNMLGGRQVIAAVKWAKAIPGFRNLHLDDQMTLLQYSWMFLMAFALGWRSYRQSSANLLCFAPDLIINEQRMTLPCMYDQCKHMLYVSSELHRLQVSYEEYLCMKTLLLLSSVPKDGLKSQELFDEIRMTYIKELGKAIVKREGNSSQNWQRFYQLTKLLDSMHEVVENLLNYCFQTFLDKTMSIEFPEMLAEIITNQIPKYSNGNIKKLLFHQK
Sequence of Cytochrome P450 2C8 (P10632 whole entry): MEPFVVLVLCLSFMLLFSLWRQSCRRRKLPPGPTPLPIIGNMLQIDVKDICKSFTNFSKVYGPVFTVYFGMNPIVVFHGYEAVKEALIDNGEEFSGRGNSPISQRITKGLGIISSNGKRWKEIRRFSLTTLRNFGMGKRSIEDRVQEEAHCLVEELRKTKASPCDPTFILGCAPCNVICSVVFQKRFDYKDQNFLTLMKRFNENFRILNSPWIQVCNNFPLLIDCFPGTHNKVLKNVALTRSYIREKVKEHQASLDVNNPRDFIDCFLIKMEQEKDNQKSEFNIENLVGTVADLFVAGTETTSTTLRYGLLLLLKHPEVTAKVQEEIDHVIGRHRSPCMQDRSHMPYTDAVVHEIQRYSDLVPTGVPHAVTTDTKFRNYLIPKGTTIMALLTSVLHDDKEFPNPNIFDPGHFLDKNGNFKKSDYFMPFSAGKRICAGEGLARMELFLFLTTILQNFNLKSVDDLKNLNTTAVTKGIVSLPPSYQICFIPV

With `COC(=O)N(CC(=O)O)Cc1cc(OCc2nc(-c3ccc(Cl)cc3)oc2C)ccc1F` the Vd [1] was 0.6 L/kg, the Activity [2] was “Dose-dependent effect” and the Cmax [3] was 1400 nM. The Tmax [4] was 48 min, the Activity [5] was 14.2% and the Activity [6] was 400%. The AUC(0-t) at 8 h [7] was 9.4 µM·h, the EC50 [8] was > 25 µM and the Ratio EC50 [9] was 1130. The bioavailability [10] was 65%, the IC50 [11] was > 98.4 µM and the IC50 [12] was > 40 µM. For the same compound, the Activity [13] was “Dose-dependent effect”, the clearance [14] was 10.7 mL/min/kg and the Activity [15] was “Dose-dependent effect”. The Activity [16] was 74%, the Activity [17] was 58.1% and the EC50 [18] was 0.005 µM. For the same compound, the fraction unbound [19] was 0.01, the EC50 [20] was > 25 µM and the Activity [21] was 61%. For the same compound, the Activity [22] was 48%, the clearance [23] was 15.3 mL/min/kg and the Activity [24] was 16%. For the same compound, the EC50 [25] was > 1.61 µM, the Activity [26] was “Non-toxic” and the AUC(0-t) at 8 h [27] was 17 µM·h. It also gave an Activity [28] of 96%, an Activity [29] of 13% and a Cmax [30] of 1500 nM. The IC50 [31] was > 40 µM, the AUC(0-t) at 8 h [32] was 8.5 µM·h and the Tmax [33] was 54 min. It also gave an AUC(0-t) at 8 h [34] of 13 µM·h.
